Assay results as given in publication PMC11494886, “Discovery and design of molecular glue enhancers of CDK12–DDB1 interactions for targeted degradation of cyclin K” (RSC Chemical Biology, 2024).

What was measured:
Cdk12/CycK and DDB1ΔB = target: T1, Cdk12/CycK and DDB1ΔB (Homo sapiens, UniProt Q16531+Q9NYV4, DEL396-705); assay: Analytical size-exclusion chromatography of DDB1ΔB and Cdk12/CycK; type: binding; details: 20 μM proteins, 60 μM compound, vs DMSO and THZ531
T1 construct: the Cdk12 (714–1063)/CycK (1–267) complex and the DDB1ΔB protein; made in house; host or cells: Sf9 insect cells (MultiBacTurbo)
Experimental: Analytical size-exclusion chromatography was employed to investigate compound-induced protein–protein interactions between the heterodimeric Cdk12 (714–1063)/CycK (1–267) complex and the RING E3 ligase-associated adaptor protein DDB1ΔB. The analysis was conducted on an Agilent 1260 Infinity II HPLC system (Agilent Technologies), coupled with a Superdex 200 Increase 3.2/300 column (Cytiva), pre-equilibrated in Cdk12 SEC buffer (20 mM Hepes pH 7.8, 400 mM NaCl, 1 mM TCEP) supplemented with 1 g L^−1 carboxymethyl-dextran. Purified proteins, combined in equimolar ratios (20 μM Cdk12/CycK and DDB1ΔB, respectively) were supplemented with 3-fold molar excess of small molecular compounds. The resulting protein mixtures were diluted to a final volume of 25 μL using the kinases SEC-buffer ensuring a final DMSO concentration of 2%, followed by an incubation period of 10 min. Upon injection into the analytical system, the chromatography was conducted at a controlled flow rate of 0.05 mL min^−1, with protein absorbance monitored at 280 nm wavelength. Peak fractions were collected drop by drop and subsequently subjected to analysis via dynamic light scattering (DLS) to assess their size distribution, along with SDS-PAGE analysis to determine the composition of the protein complex.

DDB1 = target: T2, DDB1 (Homo sapiens, UniProt Q16531, DEL396-705); assay: Microscale thermophoresis, DDB1 without CDK12/cyclin K; type: binding; details: MST, absence of CDK12/cyclin K
T2 construct: made in house; host or cells: Spodoptera frugiperda SF9 insect cells (Bac-to-Bac)
Experimental: Finally, the capacity of small molecules to induce a ternary complex between CDK12/cyclin K and DDB1 in vitro was assessed by microscale thermophoresis (MST). […]
The gene of human DDB1 (Uniprot: Q16531) with a beta-propeller B domain deletion (ΔBPB: a.a. 396–705 deleted) was subcloned into pFastBac1 vector with an N-terminal His8-tag and a HRV 3C cleavage site (GeneScript), and the recombinant protein was expressed in Spodoptera frugiperda SF9 insect cells in sf900™ II SFM culture medium using the Bac to Bac™ baculovirus expression system (Gibco™). […]
A protocol to assess ternary binding of molecular glues with CDK12/cycK and DDB1 by MST was established using published procedures for PROTAC interaction with bromodomains and E3 ubiquitin ligases.[38] […] After 5 min incubation at room temperature, the samples were loaded in MO-K022 standard treated capillaries (NanoTemper Technologies) and measured by a Monolith NT.115 Pico instrument (NanoTemper Technologies) at 40% MST power and 20% excitation power (auto-detect) on Pico-Red detector at 22 °C. MST traces were recorded using standard parameters: 5 s MST power off, 30 s MST power on and 5 s MST power off. […]

cyclin K = assay: Immunoblot of cyclin K levels in MDA-MB-231 cells; type: cell-based, human; details: SR-4835 500 nM, SR-4784 1-2 μM 2 hours, SR-4784-PAP 2 μM 2 hours
Experimental: THZ531 was used as a negative control as it is known to make a covalent bond with Cys1039 in a C-terminal extension of the kinase domain, thereby preventing this helix-loop-helix (HLH)-like fold from binding in a cleft between the DDB1 BPA and BPC domains (Fig. 1B, right panels). […] An immunofluorescence-based assay developed for visualizing loss of nuclear cyclin K also confirmed the above observations (Fig. 1H and Fig. S1, ESI ^†).
Total cell lysates were prepared using RIPA lysis buffer (Millipore Sigma) supplemented with protease and phosphatase inhibitors (Roche). Protein concentrations were estimated using the BCA protein assay kit (Pierce, Thermo Fisher Scientific). Equal amounts of proteins were separated using NuPAGE 4–12% Bis-Tris gels (Thermo Fisher Scientific). For CLICK chemistry pulldown experiments, proteins in the eluates were resolved using 3–8% Tris–acetate gels (Thermo Fisher Scientific). Proteins were transferred to nitrocellulose membranes using NuPAGE transfer buffer (Thermo Fisher Scientific). Membranes were blocked in LI-COR blocking buffer for 1 hour at room temperature and then probed with primary antibodies diluted in the same blocking buffer overnight at 4 °C. To detect the primary antibodies, membranes were incubated with IR-680 or IR-800 conjugated secondary antibodies (LI-COR) diluted in LI-COR blocking buffer at room temperature for 1 hour. Washes with 0.01% Tween-phosphate buffer were performed after primary and secondary antibody incubation steps. Signals from the membrane were recorded by scanning on a LI-COR Odyssey imager. Bands were quantified using Image Studio Lite (LI-COR Biosciences) or the ImageJ program.
To visualize the degradation of cyclin K, total cell lysates were subjected to SDS-PAGE and western blotting.

T2 sequence (Q16531 with tags, fused parts or gaps DEL396-705): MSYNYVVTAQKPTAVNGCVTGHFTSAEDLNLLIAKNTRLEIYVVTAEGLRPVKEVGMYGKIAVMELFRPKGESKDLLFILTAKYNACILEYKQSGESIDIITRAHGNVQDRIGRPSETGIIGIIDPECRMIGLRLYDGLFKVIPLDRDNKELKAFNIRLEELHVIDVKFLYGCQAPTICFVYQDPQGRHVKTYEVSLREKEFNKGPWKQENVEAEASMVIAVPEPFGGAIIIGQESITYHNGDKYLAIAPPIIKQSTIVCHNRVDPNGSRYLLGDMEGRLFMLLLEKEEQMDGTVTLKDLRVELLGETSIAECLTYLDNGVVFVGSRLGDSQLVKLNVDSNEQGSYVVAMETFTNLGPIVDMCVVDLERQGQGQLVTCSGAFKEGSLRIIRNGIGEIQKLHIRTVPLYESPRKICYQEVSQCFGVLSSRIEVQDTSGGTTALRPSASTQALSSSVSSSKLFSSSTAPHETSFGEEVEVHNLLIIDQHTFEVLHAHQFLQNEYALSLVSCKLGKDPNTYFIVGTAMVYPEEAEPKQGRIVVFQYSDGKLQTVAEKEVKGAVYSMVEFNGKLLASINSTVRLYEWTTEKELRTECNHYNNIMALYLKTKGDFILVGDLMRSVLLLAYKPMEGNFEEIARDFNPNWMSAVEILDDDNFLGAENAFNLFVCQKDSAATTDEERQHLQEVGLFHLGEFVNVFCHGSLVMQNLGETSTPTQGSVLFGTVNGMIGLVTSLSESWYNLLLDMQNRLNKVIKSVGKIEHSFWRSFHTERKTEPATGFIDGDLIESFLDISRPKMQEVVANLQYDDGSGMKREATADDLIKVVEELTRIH
T1 sequence (Q9NYV4 714-1063, stated change not applied): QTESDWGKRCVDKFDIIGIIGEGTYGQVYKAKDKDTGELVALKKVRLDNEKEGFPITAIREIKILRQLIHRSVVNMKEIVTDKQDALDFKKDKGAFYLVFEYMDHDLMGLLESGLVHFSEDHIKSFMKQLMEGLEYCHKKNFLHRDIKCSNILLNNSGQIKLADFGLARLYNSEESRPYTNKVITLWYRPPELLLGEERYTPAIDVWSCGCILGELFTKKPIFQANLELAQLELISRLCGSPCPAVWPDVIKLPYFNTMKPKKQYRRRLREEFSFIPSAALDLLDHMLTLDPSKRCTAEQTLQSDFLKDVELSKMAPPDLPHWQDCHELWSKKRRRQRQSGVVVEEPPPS
T1 sequence (O75909 1-267 partner limits assumed): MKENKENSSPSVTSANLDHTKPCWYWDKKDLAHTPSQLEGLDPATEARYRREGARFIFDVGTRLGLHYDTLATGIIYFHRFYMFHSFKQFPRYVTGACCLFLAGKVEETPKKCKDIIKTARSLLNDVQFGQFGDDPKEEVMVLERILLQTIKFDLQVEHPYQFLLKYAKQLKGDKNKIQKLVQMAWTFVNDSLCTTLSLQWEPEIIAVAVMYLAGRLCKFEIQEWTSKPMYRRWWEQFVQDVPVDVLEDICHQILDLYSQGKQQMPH
T1 sequence (Q16531 with tags, fused parts or gaps DEL396-705): as the sequence (Q16531 with tags, fused parts or gaps DEL396-705) above

retention time in analytical SEC (ternary complex formation) (Cdk12/CycK and DDB1ΔB): reduced retention times
binding to DDB1 (DDB1): did not show binding potential for DDB1
SMILES: Cn1cc(-n2cnc3c(NCc4nc5cc(Cl)c(Cl)cc5[nH]4)nc(N4CCOCC4)nc32)cn1 [SR-4835]
cyclin K degradation (immunoblot) (cyclin K): rapidly degrades cyclin K
